# Patent publication US20060069132A1, “Azolecarboxamide herbicides” (priority 2004, published 2006)
# What was measured:
# wheat = assay: Test B postemergence herbicide test; assay type: in vivo, Triticum aestivum; set-up: key to Wheat plant response rating: 0 = no effect, 100 = complete control; details: scale 0 (no effect) to 100 (complete control); for Plant response rating, Wheat: Postemergence, 500 g ai/ha, visual rating after 13 to 15 days
# Summary of the method: (§1)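 Each value is a visual 0–100 response rating taken against controls 13 to 15 days after treatment in the greenhouse. Plants received formulated chemical postemergence at the 1- to 4-leaf stage or, in flooded paddy, at the 2-leaf stage.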
# giant foxtail = assay: Test B pre-/postemergence herbicide test; assay type: in vivo, Setaria faberi
# Summary of the method: (§2)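 Response was scored visually 13 to 15 days after treatment against untreated greenhouse controls, 0 meaning no effect and 100 complete control. Formulations (solvent mixture plus surfactant) went onto soil after planting, onto foliage of 1- to 4-leaf plants, and onto 2-leaf plants in a flooded paddy set including rice and barnyardgrass.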
# large crabgrass = assay: Test B pre-/postemergence herbicide test; assay type: in vivo, Digitaria sanguinalis
# Summary of the method: as §2
# morningglory = assay: Test B pre-/postemergence herbicide test; assay type: in vivo, Ipomoea coccinea
# Summary of the method: (§3)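 Greenhouse pot assay with simultaneous preemergence (treated seed) and postemergence (2–18 cm seedlings) applications of surfactant-containing, non-phytotoxic solvent formulations. Response scored visually 13–15 days later on a 0–100 scale, 100 meaning complete control.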
# rice = assay: Test B flooded paddy test; assay type: in vivo, Oryza sativa; details: 1000 g ai/ha, visual rating, scale 0 to 100 (0 no effect, 100 complete control), 13 to 15 days
# Summary of the method: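 Postemergence plants were sprayed with formulated test chemicals at 2 to 18 cm height (1- to 4-leaf stage); paddy species were grown to the 2-leaf stage. After 13 to 15 days in a greenhouse, injury was rated visually against untreated controls on a 0–100 scale (0 = no effect, 100 = complete control).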
# lambsquarters = assay: Test B pre-/postemergence herbicide test; assay type: in vivo, Chenopodium album
# Summary of the method: as §2
# ducksalad = assay: Test B flooded paddy test; assay type: in vivo, Heteranthera limosa; details: 1000 g ai/ha, visual rating, scale 0 to 100 (0 no effect, 100 complete control), 13 to 15 days
# Summary of the method: (§4)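 Greenhouse test; postemergence application to plants at 1–4 leaves (2–18 cm); paddy species at 2 leaves; evaluated visually vs controls at 13–15 days; scale 0–100 (100 = complete control).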
# barnyardgrass = assay: Test B pre-/postemergence herbicide test; assay type: in vivo, Echinochloa crus-galli
# Summary of the method: as §3
# Surinam grass = assay: Test B pre-/postemergence herbicide test; assay type: in vivo, Urochloa decumbens
# Summary of the method: as §2
# blackgrass = assay: Test B postemergence herbicide test; assay type: in vivo, Alopecurus myosuroides; details: scale 0 (no effect) to 100 (complete control); for Blackgrass plant response rating: 125 g ai/ha; for Plant response rating, Blackgrass: 500 g ai/ha, visual rating after 13 to 15 days
# Summary of the method: as §4
# corn = assay: Test B pre-/postemergence herbicide test; assay type: in vivo, Zea mays
# Summary of the method: as §2
# wild oat = assay: Test B postemergence herbicide test; assay type: in vivo, Avena fatua; details: scale 0 (no effect) to 100 (complete control); for Oat, Wild plant response rating: 125 g ai/ha; for Plant response rating, Oat, Wild: 500 g ai/ha, visual rating after 13 to 15 days
# Summary of the method: as §1
# [1] = system: small flower umbrella sedge; assay: Test B flooded paddy test; assay type: in vivo, Cyperus difformis; details: 1000 g ai/ha, visual rating, scale 0 to 100 (0 no effect, 100 complete control), 13 to 15 days
# Summary of the method: as §4
# velvetleaf = assay: Test B pre-/postemergence herbicide test; assay type: in vivo, Abutilon theophrasti
# Summary of the method: as §2
# pigweed = assay: Test B pre-/postemergence herbicide test; assay type: in vivo, Amaranthus retroflexus
# Summary of the method: as §2
# [2] = Postemergence, 125 g ai/ha, scale 0 (no effect) to 100 (complete control)
# [3] = Postemergence, 500 g ai/ha, visual rating after 13 to 15 days, scale 0 (no effect) to 100 (complete control)
# [4] = Preemergence, 500 g ai/ha, scale 0 to 100
# [5] = preemergence, 125 g ai/ha, 0 to 100 scale, 0 is no effect, 100 is complete control
# [6] = postemergence, 125 g ai/ha, visual rating, scale 0 (no effect) to 100 (complete control)
compound,measurement,setting,value
C=CCNC(=O)c1cccc(NC(=O)c2cc(C(C)(C)C)nn2CC)c1 [Compound 46],"Plant response rating, Wheat",wheat,30
same,"Foxtail, Giant plant response rating",giant foxtail; [2],30
same,"Plant response rating, Foxtail, Giant",giant foxtail; [3],40
same,"Foxtail, Giant plant response rating",giant foxtail; [4],100
same,"Plant response rating, Foxtail, Giant",giant foxtail; [5],60
same,"Crabgrass, Large plant response rating",large crabgrass; [2],30
same,"Plant response rating, Crabgrass, Large",large crabgrass; [3],90
same,"Crabgrass, Large plant response rating",large crabgrass; [4],100
same,Morningglory plant response rating,morningglory; [2],0
same,"Plant response rating, Morningglory",morningglory; [3],90
same,Morningglory plant response rating,morningglory; [4],20
same,"Plant response rating, Morningglory",morningglory; [5],10
same,Rice plant response rating,rice,70
same,Lambsquarters plant response rating,lambsquarters; [2],80
same,"Plant response rating, Lambsquarters",lambsquarters; [3],90
same,Lambsquarters plant response rating,lambsquarters; [4],100
same,"Plant response rating, Lambsquarters",lambsquarters; [5],100
same,Ducksalad plant response rating,ducksalad,90
same,Barnyardgrass plant response rating,barnyardgrass; [2],10
same,"Plant response rating, Barnyardgrass",barnyardgrass; [3],50
same,Barnyardgrass plant response rating,barnyardgrass; [4],100
same,"Plant response rating, Surinam Grass",Surinam grass; [3],40
same,Surinam Grass plant response rating,Surinam grass; [4],70
same,"Plant response rating, Surinam Grass",Surinam grass; [5],20
same,Blackgrass plant response rating,blackgrass; Postemergence,10
same,"Plant response rating, Blackgrass",blackgrass; Postemergence,20
same,Corn plant response rating,corn; [2],20
same,"Plant response rating, Corn",corn; [3],30
same,Corn plant response rating,corn; [4],10
same,"Oat, Wild plant response rating",wild oat; Postemergence,0
same,"Plant response rating, Oat, Wild",wild oat; Postemergence,10
same,"Sedge, Umbrella plant response rating",[1],80
same,"Plant response rating, Velvetleaf",velvetleaf; [3],80
same,Velvetleaf plant response rating,velvetleaf; [4],100
same,"Plant response rating, Velvetleaf",velvetleaf; [5],50
same,"Plant response rating, Pigweed",pigweed; [3],90
same,Pigweed plant response rating,pigweed; [4],100
same,"Plant response rating, Pigweed",pigweed; [5],100
C#CCNC(=O)c1cccc(NC(=O)c2cc(C(C)(C)C)nn2CC)c1 [Compound 47],"Plant response rating, Wheat",wheat,30
same,"Foxtail, Giant plant response rating",giant foxtail; [2],30
same,"Plant response rating, Foxtail, Giant",giant foxtail; [3],30
same,"Foxtail, Giant plant response rating",giant foxtail; [4],90
same,"Plant response rating, Foxtail, Giant",giant foxtail; [5],40
same,"Crabgrass, Large plant response rating",large crabgrass; [2],10
same,"Plant response rating, Crabgrass, Large",large crabgrass; [3],70
same,"Crabgrass, Large plant response rating",large crabgrass; [4],100
same,Morningglory plant response rating,morningglory; [2],30
same,"Plant response rating, Morningglory",morningglory; [3],100
same,Morningglory plant response rating,morningglory; [4],30
same,"Plant response rating, Morningglory",morningglory; [5],20
same,Rice plant response rating,rice,70
same,Lambsquarters plant response rating,lambsquarters; [2],80
same,"Plant response rating, Lambsquarters",lambsquarters; [3],90
same,Lambsquarters plant response rating,lambsquarters; [4],100
same,"Plant response rating, Lambsquarters",lambsquarters; [5],100
same,Ducksalad plant response rating,ducksalad,80
same,Barnyardgrass plant response rating,barnyardgrass; [2],20
same,"Plant response rating, Barnyardgrass",barnyardgrass; [3],40
same,Barnyardgrass plant response rating,barnyardgrass; [4],90
same,"Plant response rating, Surinam Grass",Surinam grass; [3],40
same,Surinam Grass plant response rating,Surinam grass; [4],70
same,"Plant response rating, Surinam Grass",Surinam grass; [5],20
same,Blackgrass plant response rating,blackgrass; Postemergence,10
same,"Plant response rating, Blackgrass",blackgrass; Postemergence,10
same,Corn plant response rating,corn; [2],10
same,"Plant response rating, Corn",corn; [3],30
same,Corn plant response rating,corn; [4],10
same,"Oat, Wild plant response rating",wild oat; Postemergence,10
same,"Plant response rating, Oat, Wild",wild oat; Postemergence,30
same,"Sedge, Umbrella plant response rating",[1],80
same,"Plant response rating, Velvetleaf",velvetleaf; [3],70
same,Velvetleaf plant response rating,velvetleaf; [4],100
same,"Plant response rating, Velvetleaf",velvetleaf; [5],30
same,"Plant response rating, Pigweed",pigweed; [3],100
same,Pigweed plant response rating,pigweed; [4],100
same,"Plant response rating, Pigweed",pigweed; [5],100
CCN(C)C(=O)c1cccc(NC(=O)c2cc(C(C)(C)C)nn2CC)c1 [Compound 48],"Plant response rating, Wheat",wheat,20
same,"Foxtail, Giant plant response rating",giant foxtail; [2],20
same,"Plant response rating, Foxtail, Giant",giant foxtail; [3],30
same,"Foxtail, Giant plant response rating",giant foxtail; [4],90
same,"Plant response rating, Foxtail, Giant",giant foxtail; [5],70
same,"Crabgrass, Large plant response rating",large crabgrass; [2],10
same,"Plant response rating, Crabgrass, Large",large crabgrass; [3],20
same,"Crabgrass, Large plant response rating",large crabgrass; [4],80
same,Morningglory plant response rating,morningglory; [2],0
same,"Plant response rating, Morningglory",morningglory; [3],50
same,Morningglory plant response rating,morningglory; [4],40
same,"Plant response rating, Morningglory",morningglory; [5],10
same,Rice plant response rating,rice,80
same,Lambsquarters plant response rating,lambsquarters; [2],60
same,"Plant response rating, Lambsquarters",lambsquarters; [3],90
same,Lambsquarters plant response rating,lambsquarters; [4],90
same,"Plant response rating, Lambsquarters",lambsquarters; [5],90
same,Ducksalad plant response rating,ducksalad,80
same,Barnyardgrass plant response rating,barnyardgrass; [2],40
same,"Plant response rating, Barnyardgrass",barnyardgrass; [3],60
same,Barnyardgrass plant response rating,barnyardgrass; [4],90
same,"Plant response rating, Surinam Grass",Surinam grass; [3],50
same,Surinam Grass plant response rating,Surinam grass; [4],80
same,"Plant response rating, Surinam Grass",Surinam grass; [5],10
same,Blackgrass plant response rating,blackgrass; Postemergence,0
same,"Plant response rating, Blackgrass",blackgrass; Postemergence,10
same,Corn plant response rating,corn; [2],0
same,"Plant response rating, Corn",corn; [3],30
same,Corn plant response rating,corn; [4],0
same,"Oat, Wild plant response rating",wild oat; Postemergence,10
same,"Plant response rating, Oat, Wild",wild oat; Postemergence,30
same,"Sedge, Umbrella plant response rating",[1],80
same,"Plant response rating, Velvetleaf",velvetleaf; [3],80
same,Velvetleaf plant response rating,velvetleaf; [4],100
same,"Plant response rating, Velvetleaf",velvetleaf; [5],90
same,"Plant response rating, Pigweed",pigweed; [3],70
same,Pigweed plant response rating,pigweed; [4],100
same,"Plant response rating, Pigweed",pigweed; [5],100
C#CCn1nc(C(C)(C)C)cc1C(=O)Nc1cccc(C(=O)NCC)c1 [Compound 50],"Plant response rating, Wheat",wheat,30
same,Wheat plant response rating,"wheat; postemergence, 125 g ai/ha, visual rating",30
same,"Plant response rating, Foxtail, Giant",giant foxtail; [3],30
same,"Foxtail, Giant plant response rating",giant foxtail; [4],100
same,"Foxtail, Giant plant response rating",giant foxtail; [6],30
same,"Plant response rating, Foxtail, Giant",giant foxtail; [5],20
same,"Plant response rating, Crabgrass, Large",large crabgrass; [3],30
same,"Crabgrass, Large plant response rating",large crabgrass; [4],90
same,"Crabgrass, Large plant response rating",large crabgrass; [6],10
same,"Plant response rating, Crabgrass, Large",large crabgrass; [5],30
same,"Plant response rating, Morningglory",morningglory; [3],70
same,Morningglory plant response rating,morningglory; [4],40
same,Morningglory plant response rating,morningglory; [6],70
same,"Plant response rating, Morningglory",morningglory; [5],10
same,Rice plant response rating,rice,60
same,"Plant response rating, Lambsquarters",lambsquarters; [3],90
same,Lambsquarters plant response rating,lambsquarters; [4],100
same,Lambsquarters plant response rating,lambsquarters; [6],80
same,"Plant response rating, Lambsquarters",lambsquarters; [5],90
same,Ducksalad plant response rating,ducksalad,70
same,"Plant response rating, Barnyardgrass",barnyardgrass; [3],70
same,Barnyardgrass plant response rating,barnyardgrass; [4],80
same,Barnyardgrass plant response rating,barnyardgrass; [6],50
same,"Plant response rating, Barnyardgrass",barnyardgrass; [5],40
same,"Plant response rating, Surinam Grass",Surinam grass; [3],40
same,Surinam Grass plant response rating,Surinam grass; [4],50
same,Surinam Grass plant response rating,Surinam grass; [6],30
same,"Plant response rating, Surinam Grass",Surinam grass; [5],20
same,"Plant response rating, Blackgrass",blackgrass; Postemergence,30
same,Blackgrass plant response rating,"blackgrass; postemergence, visual rating",20
same,"Plant response rating, Corn",corn; [3],40
same,Corn plant response rating,corn; [4],10
same,Corn plant response rating,corn; [6],30
same,"Plant response rating, Corn",corn; [5],0
same,"Plant response rating, Oat, Wild",wild oat; Postemergence,20
same,"Oat, Wild plant response rating","wild oat; postemergence, visual rating",20
same,"Sedge, Umbrella plant response rating",[1],80
same,"Plant response rating, Velvetleaf",velvetleaf; [3],60
same,Velvetleaf plant response rating,velvetleaf; [4],50
same,Velvetleaf plant response rating,velvetleaf; [6],40
same,"Plant response rating, Velvetleaf",velvetleaf; [5],20
same,"Plant response rating, Pigweed",pigweed; [3],100
same,Pigweed plant response rating,pigweed; [4],100
same,Pigweed plant response rating,pigweed; [6],80
same,"Plant response rating, Pigweed",pigweed; [5],100
